Legend:
[1] = classification of the substance (M+/M−); cited from earlier work
[2] = test system: rodent; details: in vivo; cited from earlier work
[3] = test system: liver; details: in vivo; cited from earlier work
[4] = test system: mRNA expressed from the genes (A) to (D) in rat liver; test: Behavior of genes (mRNA expression level, oligo-DNA microarray) in rat liver after 28-day oral administration; format: in vivo; details: for Behavior of gene caused by administration of chemical substance, Gene No. 4846 / Behavior of gene caused by administration of chemical substance, Gene No. 2026 / Behavior of gene caused by administration of chemical substance, Gene No. 4218 / Behavior of gene caused by administration of chemical substance, Gene No. 6182 / Behavior of gene caused by administration of chemical substance, Gene No. 5600: gene group (A); for Behavior of gene caused by administration of chemical substance, Gene No. 4846: Unigene No. Rn.144554; for Behavior of gene caused by administration of chemical substance, Gene No. 2026 / Behavior of gene caused by administration of chemical substance, Gene No. 4218: Unigene No. Rn.167075; for Behavior of gene caused by administration of chemical substance, Gene No. 6182: Unigene No. Rn.5834; for Behavior of gene caused by administration of chemical substance, Gene No. 5600: Unigene No. Rn.9836; for Behavior of gene caused by administration of chemical substance, Gene No. 1494 / Behavior of gene caused by administration of chemical substance, Gene No. 2045 / Behavior of gene caused by administration of chemical substance, Gene No. 2203: gene group (B); for Behavior of gene caused by administration of chemical substance, Gene No. 1494: Unigene No. Rn.1430; for Behavior of gene caused by administration of chemical substance, Gene No. 2045: Unigene No. Rn.19329; for Behavior of gene caused by administration of chemical substance, Gene No. 2203: Unigene No. Rn.21240; for Behavior of gene caused by administration of chemical substance, Gene No. 533 / Behavior of gene caused by administration of chemical substance, Gene No. 725 / Behavior of gene caused by administration of chemical substance, Gene No. 1163 / Behavior of gene caused by administration of chemical substance, Gene No. 4973 / Behavior of gene caused by administration of chemical substance, Gene No. 4095 / Behavior of gene caused by administration of chemical substance, Gene No. 1334 / Behavior of gene caused by administration of chemical substance, Gene No. 6620 / Behavior of gene caused by administration of chemical substance, Gene No. 6303 / Behavior of gene caused by administration of chemical substance, Gene No. 5878 / Behavior of gene caused by administration of chemical substance, Gene No. 1131 / Behavior of gene caused by administration of chemical substance, Gene No. 1562 / Behavior of gene caused by administration of chemical substance, Gene No. 1741 / Behavior of gene caused by administration of chemical substance, Gene No. 893 / Behavior of gene caused by administration of chemical substance, Gene No. 6026 / Behavior of gene caused by administration of chemical substance, Gene No. 154 / Behavior of gene caused by administration of chemical substance, Gene No. 1993 / Behavior of gene caused by administration of chemical substance, Gene No. 813 / Behavior of gene caused by administration of chemical substance, Gene No. 2494 / Behavior of gene caused by administration of chemical substance, Gene No. 2546 / Behavior of gene caused by administration of chemical substance, Gene No. 3776 / Behavior of gene caused by administration of chemical substance, Gene No. 3929 / Behavior of gene caused by administration of chemical substance, Gene No. 1119 / Behavior of gene caused by administration of chemical substance, Gene No. 6742 / Behavior of gene caused by administration of chemical substance, Gene No. 5634: gene group (C); for Behavior of gene caused by administration of chemical substance, Gene No. 533: Unigene No. Rn.106184; for Behavior of gene caused by administration of chemical substance, Gene No. 725: Unigene No. Rn.108075; for Behavior of gene caused by administration of chemical substance, Gene No. 1163: Unigene No. Rn.11766; for Behavior of gene caused by administration of chemical substance, Gene No. 4973: Unigene No. Rn.118529; for Behavior of gene caused by administration of chemical substance, Gene No. 4095: Unigene No. Rn.119024; for Behavior of gene caused by administration of chemical substance, Gene No. 1334 / Behavior of gene caused by administration of chemical substance, Gene No. 6620: Unigene No. Rn.120914; for Behavior of gene caused by administration of chemical substance, Gene No. 6303: Unigene No. Rn.123063; for Behavior of gene caused by administration of chemical substance, Gene No. 5878: Unigene No. Rn.143213; for Behavior of gene caused by administration of chemical substance, Gene No. 1131: Unigene No. Rn.144946; for Behavior of gene caused by administration of chemical substance, Gene No. 1562: Unigene No. Rn.14744; for Behavior of gene caused by administration of chemical substance, Gene No. 1741: Unigene No. Rn.1647; for Behavior of gene caused by administration of chemical substance, Gene No. 893: Unigene No. Rn.164817; for Behavior of gene caused by administration of chemical substance, Gene No. 6026: Unigene No. Rn.167685; for Behavior of gene caused by administration of chemical substance, Gene No. 154: Unigene No. Rn.185941; for Behavior of gene caused by administration of chemical substance, Gene No. 1993: Unigene No. Rn.18728; for Behavior of gene caused by administration of chemical substance, Gene No. 813: Unigene No. Rn.201760; for Behavior of gene caused by administration of chemical substance, Gene No. 2494: Unigene No. Rn.23969; for Behavior of gene caused by administration of chemical substance, Gene No. 2546: Unigene No. Rn.24561; for Behavior of gene caused by administration of chemical substance, Gene No. 3776: Unigene No. Rn.43232; for Behavior of gene caused by administration of chemical substance, Gene No. 3929: Unigene No. Rn.4620; for Behavior of gene caused by administration of chemical substance, Gene No. 1119: Unigene No. Rn.9757; for Behavior of gene caused by administration of chemical substance, Gene No. 6742: Unigene No. Rn.9779; for Behavior of gene caused by administration of chemical substance, Gene No. 5634: Unigene No. Rn.9862; for Behavior of gene caused by administration of chemical substance, Gene No. 5726: gene group (D), Unigene No. Rn.9939
Outline: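 Male F344 SPF rats, 5 weeks old, four per group, dosed by oral gavage once daily for 28 days with test chemical or matched-volume solvent. Liver total RNA profiled on oligo-DNA microarray. Change ≥1.5-fold or ≤1/1.5 versus vehicle counted as significant if its direction matched that seen with other carcinogens.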

Compound | Carcinogenicity [2] | Liver carcinogenicity [3] | Behavior of gene caused by administration of chemical substance, Gene No. 4846 [4] | Behavior of gene caused by administration of chemical substance, Gene No. 2026 [4] | Behavior of gene caused by administration of chemical substance, Gene No. 4218 [4] | Behavior of gene caused by administration of chemical substance, Gene No. 6182 [4] | Behavior of gene caused by administration of chemical substance, Gene No. 5600 [4] | Behavior of gene caused by administration of chemical substance, Gene No. 1494 [4] | Behavior of gene caused by administration of chemical substance, Gene No. 2045 [4] | Behavior of gene caused by administration of chemical substance, Gene No. 2203 [4] | Behavior of gene caused by administration of chemical substance, Gene No. 533 [4] | Behavior of gene caused by administration of chemical substance, Gene No. 725 [4] | Behavior of gene caused by administration of chemical substance, Gene No. 1163 [4] | Behavior of gene caused by administration of chemical substance, Gene No. 4973 [4] | Behavior of gene caused by administration of chemical substance, Gene No. 4095 [4] | Behavior of gene caused by administration of chemical substance, Gene No. 1334 [4] | Behavior of gene caused by administration of chemical substance, Gene No. 6620 [4] | Behavior of gene caused by administration of chemical substance, Gene No. 6303 [4] | Behavior of gene caused by administration of chemical substance, Gene No. 5878 [4] | Behavior of gene caused by administration of chemical substance, Gene No. 1131 [4] | further results
C=C(C)[C@H]1CC=C(C)CC1 [TS024, D-Limonene] |  |  |  |  |  |  |  |  |  |  |  |  |  |  |  |  |  |  |  |  | Mutagenicity by Ames test [1]: M−
CC(O)CCl (centres unmarked) [TS079, 1-Chloro-2-propanol] | C− | Cr− | − | − | − | + | − | − | + | + | − | − | − | − | − | − | − | − | − | − | Behavior of gene caused by administration of chemical substance, Gene No. 1562 [4]: −; Behavior of gene caused by administration of chemical substance, Gene No. 1741 [4]: −; Behavior of gene caused by administration of chemical substance, Gene No. 893 [4]: −; Behavior of gene caused by administration of chemical substance, Gene No. 6026 [4]: −; Behavior of gene caused by administration of chemical substance, Gene No. 154 [4]: −; Behavior of gene caused by administration of chemical substance, Gene No. 1993 [4]: −; Behavior of gene caused by administration of chemical substance, Gene No. 813 [4]: −; Behavior of gene caused by administration of chemical substance, Gene No. 2494 [4]: −; Behavior of gene caused by administration of chemical substance, Gene No. 2546 [4]: −; Behavior of gene caused by administration of chemical substance, Gene No. 3776 [4]: −; Behavior of gene caused by administration of chemical substance, Gene No. 3929 [4]: −; Behavior of gene caused by administration of chemical substance, Gene No. 1119 [4]: −; Behavior of gene caused by administration of chemical substance, Gene No. 6742 [4]: −; Behavior of gene caused by administration of chemical substance, Gene No. 5634 [4]: −; Behavior of gene caused by administration of chemical substance, Gene No. 5726 [4]: +
O=[N+]([O-])c1cccc2ccccc12 [TS083, 1-Nitronaphthalene] | C− | Cr− | − | + | − | − | − | + | − | − | + | + | − | + | + | + | + | + | − | − | Behavior of gene caused by administration of chemical substance, Gene No. 1562 [4]: +; Behavior of gene caused by administration of chemical substance, Gene No. 1741 [4]: +; Behavior of gene caused by administration of chemical substance, Gene No. 893 [4]: +; Behavior of gene caused by administration of chemical substance, Gene No. 6026 [4]: +; Behavior of gene caused by administration of chemical substance, Gene No. 154 [4]: +; Behavior of gene caused by administration of chemical substance, Gene No. 1993 [4]: +; Behavior of gene caused by administration of chemical substance, Gene No. 813 [4]: +; Behavior of gene caused by administration of chemical substance, Gene No. 2494 [4]: −; Behavior of gene caused by administration of chemical substance, Gene No. 2546 [4]: +; Behavior of gene caused by administration of chemical substance, Gene No. 3776 [4]: +; Behavior of gene caused by administration of chemical substance, Gene No. 3929 [4]: +; Behavior of gene caused by administration of chemical substance, Gene No. 1119 [4]: +; Behavior of gene caused by administration of chemical substance, Gene No. 6742 [4]: +; Behavior of gene caused by administration of chemical substance, Gene No. 5634 [4]: −; Behavior of gene caused by administration of chemical substance, Gene No. 5726 [4]: −
O=P(OCCCl)(OCCCl)OCCCl [TS088, Tris(2-chloroethyl)phosphate] | C+ | Cr− |  |  |  |  |  |  |  |  |  |  |  |  |  |  |  |  |  |  | Behavior of gene caused by administration of chemical substance ([4]; rat, in vivo): − and +
